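Five compound concentrations were applied to cells in 96-well plates for 48 hours; endpoints were derived by simple linear interpolation of the resulting dose-response curve. The concentration for 50% growth inhibition is given as GI50.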 Calls of active or inactive are those of the source. Cut-off read from the data, not from the text of the source: active = GI50 up to about 1.1 µM and inactive = higher.
Tests used:
Experiment in all cases: NCI anticancer screen, dose series, 48 h
DLD-1 = tested on: DLD-1
HOP-18 = tested on: HOP-18
KM-20L2 = tested on: KM-20L2
M19-MEL = tested on: M19-MEL
DMS-273 = tested on: DMS-273
SNB-78 = tested on: SNB-78
DMS-114 = tested on: DMS-114
XF498 = tested on: XF498
RXF 631 = tested on: RXF 631

SMILES | GI50 (DLD-1) | GI50 (HOP-18) | GI50 (KM-20L2) | GI50 (M19-MEL) | GI50 (DMS-273) | GI50 (SNB-78) | GI50 (DMS-114) | GI50 (XF498) | GI50 (RXF 631)
CCc1cccc(C)c1NC(=S)NC(=O)c1ccccc1C(=O)NC(=S)Nc1c(C)cccc1CC | > 100 µM (inactive) | 50.7 µM (inactive) | 91.8 µM (inactive) | 39.2 µM (inactive) | 95.3 µM (inactive) | > 100 µM (inactive) | 29.9 µM (inactive) | – | –
CC(=O)Nc1ccc(C2=N/C(=C\c3ccc(Cl)cc3)C(=O)O2)cc1 | 31.9 µM (inactive) | > 100 µM (inactive) | 84.7 µM (inactive) | 25.5 µM (inactive) | 66.5 µM (inactive) | > 100 µM (inactive) | – | 22 µM (inactive) | –
N#CC(NNC(=O)c1ccccc1O)c1c(O)ccc2ccccc12 (configuration not stated) | 2.06 µM (inactive) | 2.04 µM (inactive) | 17.9 µM (inactive) | 1.78 µM (inactive) | 2.52 µM (inactive) | 19.8 µM (inactive) | 1.87 µM (inactive) | – | –
Cc1cccc(C(C)(C)C)c1NC(=O)CCl | > 100 µM (inactive) | > 100 µM (inactive) | > 100 µM (inactive) | > 100 µM (inactive) | > 100 µM (inactive) | > 100 µM (inactive) | – | > 100 µM (inactive) | > 100 µM (inactive)
CN(C)CCS/C(=N\c1ccccc1)N1CCCCC1 | 17.3 µM (inactive) | 17.9 µM (inactive) | 17.2 µM (inactive) | 17.1 µM (inactive) | 16.7 µM (inactive) | – | 13.5 µM (inactive) | 16.1 µM (inactive) | –
CSc1cc(C(C)(C)C)ccc1C(O)c1ccc(C(C)(C)C)cc1SC | 8.36 µM (inactive) | 15.5 µM (inactive) | 11 µM (inactive) | 10.2 µM (inactive) | 10.9 µM (inactive) | 15.6 µM (inactive) | 7.69 µM (inactive) | 10.8 µM (inactive) | –
CN(C)c1ncnc2c1Cc1ccccc1C(=O)N2C | > 100 µM (inactive) | > 100 µM (inactive) | > 100 µM (inactive) | > 100 µM (inactive) | > 100 µM (inactive) | > 100 µM (inactive) | > 100 µM (inactive) | > 100 µM (inactive) | > 100 µM (inactive)
NC(=O)NCc1c(C(N)=O)ncn1Cc1ccccc1 | > 100 µM (inactive) | > 100 µM (inactive) | > 100 µM (inactive) | > 100 µM (inactive) | > 100 µM (inactive) | > 100 µM (inactive) | > 100 µM (inactive) | > 100 µM (inactive) | –
COc1ccc(NCc2cc(OC)cc(OC)c2)cc1 | 32.6 µM (inactive) | > 42.7 µM (inactive) | 10.7 µM (inactive) | 15.1 µM (inactive) | 6.15 µM (inactive) | 19.6 µM (inactive) | 6.53 µM (inactive) | 4.3 µM (inactive) | 10.5 µM (inactive)
Cn1c(=O)c(C(c2ccccc2)c2c(O)c3ccccc3n(C)c2=O)c(O)c2ccccc21 | 88.7 µM (inactive) | > 100 µM (inactive) | > 100 µM (inactive) | > 100 µM (inactive) | > 100 µM (inactive) | > 100 µM (inactive) | > 100 µM (inactive) | > 100 µM (inactive) | > 100 µM (inactive)
Cc1ccc(/C=C/C(=O)C(C)C)cc1 | 51.9 µM (inactive) | – | 14.2 µM (inactive) | 64 µM (inactive) | – | 64.7 µM (inactive) | 42.2 µM (inactive) | – | –
CCOC(=O)c1cc(C(=O)O)c(=O)n2c1[nH]c1ccccc12 | 99.8 µM (inactive) | 42.1 µM (inactive) | > 100 µM (inactive) | > 100 µM (inactive) | 56.1 µM (inactive) | > 100 µM (inactive) | > 100 µM (inactive) | > 100 µM (inactive) | > 100 µM (inactive)
Cc1cccc2cc3cccc(C(=O)NCCN(C)C)c3nc12 | 0.119 µM (active) | 0.399 µM (active) | 0.242 µM (active) | 0.157 µM (active) | 0.0374 µM (active) | 0.614 µM (active) | 0.115 µM (active) | – | 0.0538 µM (active)
C=C1CC[C@@H]2C(C)(C)C(O)CCC2(C)C1COc1ccc2ccc(=O)oc2c1 (some centres not stated) | 15.7 µM (inactive) | 19.6 µM (inactive) | 19.1 µM (inactive) | 18.4 µM (inactive) | 14.3 µM (inactive) | 19.4 µM (inactive) | 15 µM (inactive) | 16 µM (inactive) | –
CC(C)CCCC(C)[C@H]1CCC2[C@H]3C(CC[C@@]21C)[C@@]1(C)CCC=C[C@]12C[C@@H]2[C@@H]3O (some centres not stated) | > 100 µM (inactive) | > 100 µM (inactive) | > 100 µM (inactive) | – | > 100 µM (inactive) | > 100 µM (inactive) | > 100 µM (inactive) | – | > 100 µM (inactive)
C/C(=N\NC(=S)N1CCC(C2CCN(C(=S)N/N=C(\C)c3ccccn3)CC2)CC1)c1ccccn1 | > 100 µM (inactive) | > 100 µM (inactive) | > 100 µM (inactive) | > 100 µM (inactive) | 64.1 µM (inactive) | 44.3 µM (inactive) | – | 35 µM (inactive) | > 100 µM (inactive)
C/C(=N\NC(=S)N1CCN(c2ccccn2)CC1)c1nccs1 | – | 2.92 µM (inactive) | < 0.0294 µM (active) | 0.574 µM (active) | 0.351 µM (active) | 6.76 µM (inactive) | 0.01 µM (active) | 13 µM (inactive) | 1.05 µM (active)
CC(C)[Si](OCC1CC(C#N)OC(C)(C)O1)(C(C)C)C(C)C (configuration not stated) | 44.4 µM (inactive) | 30.5 µM (inactive) | 21.9 µM (inactive) | 25.2 µM (inactive) | 19.2 µM (inactive) | 20.5 µM (inactive) | > 10 µM (inactive) | 21 µM (inactive) | –
CSC(=S)N(C)NC(=O)c1cccc(C(=O)NN(C)C(=S)SC)n1 | 27.2 µM (inactive) | 78.5 µM (inactive) | 4.07 µM (inactive) | 31 µM (inactive) | 14.1 µM (inactive) | 27.7 µM (inactive) | 1.36 µM (inactive) | – | –
O=C1/C(=C/c2ccc(O)cc2)CCC1CNc1ccc(Cl)cc1 (configuration not stated) | 0.912 µM (active) | 6.08 µM (inactive) | 0.579 µM (active) | 1.79 µM (inactive) | 0.836 µM (active) | 12.5 µM (inactive) | 1.31 µM (inactive) | 2.7 µM (inactive) | 8.89 µM (inactive)
COC1CCC2C(=O)CCCC2O1 (configuration not stated) | > 100 µM (inactive) | > 100 µM (inactive) | > 100 µM (inactive) | > 100 µM (inactive) | > 100 µM (inactive) | > 100 µM (inactive) | > 100 µM (inactive) | > 100 µM (inactive) | > 100 µM (inactive)
COC(=O)C1=C(C)N(NC(=O)c2ccccc2)C(C)(O)C12CCOC2=O (configuration not stated) | > 100 µM (inactive) | > 100 µM (inactive) | > 100 µM (inactive) | – | > 100 µM (inactive) | > 100 µM (inactive) | > 100 µM (inactive) | > 100 µM (inactive) | –
CCOC(=O)Cc1c(Cc2[nH]c(C(=O)OCc3ccccc3)c(CC(=O)OCC)c2CC(=O)OCC)[nH]c(C(=O)OCc2ccccc2)c1CC(=O)OCC | – | > 100 µM (inactive) | > 100 µM (inactive) | > 100 µM (inactive) | – | > 100 µM (inactive) | > 100 µM (inactive) | – | –
O=C1OC(Cl)C(N=P(c2ccccc2)(c2ccccc2)c2ccccc2)=C1Cl (configuration not stated) | > 100 µM (inactive) | – | – | > 100 µM (inactive) | > 100 µM (inactive) | 37.9 µM (inactive) | > 100 µM (inactive) | > 100 µM (inactive) | –
COc1ccc(C(=O)C(c2ccc(OC)cc2)C2(O)C(=O)Nc3ccccc32)cc1 (configuration not stated) | > 100 µM (inactive) | – | > 100 µM (inactive) | > 100 µM (inactive) | > 100 µM (inactive) | > 100 µM (inactive) | – | > 100 µM (inactive) | > 100 µM (inactive)
COC(=O)CC1CC2(C(=O)OC)c3[nH]c4ccccc4c3CCN2C1=O (configuration not stated) | > 100 µM (inactive) | > 100 µM (inactive) | > 100 µM (inactive) | > 100 µM (inactive) | > 100 µM (inactive) | > 100 µM (inactive) | > 100 µM (inactive) | > 100 µM (inactive) | 17.5 µM (inactive)
CS(=O)(=O)OC1CCC2(C#N)CCC1C2=O (configuration not stated) | > 100 µM (inactive) | > 100 µM (inactive) | 54.5 µM (inactive) | > 100 µM (inactive) | 22.5 µM (inactive) | > 100 µM (inactive) | – | > 100 µM (inactive) | > 100 µM (inactive)
CCCCCCCCCCCCCCCCCCN(C)CC(COP(=O)([O-])OCC[N+](C)(C)C)OC (configuration not stated) | 5.14 µM (inactive) | 17.3 µM (inactive) | 1.91 µM (inactive) | 4.21 µM (inactive) | 1.95 µM (inactive) | 6.32 µM (inactive) | 6.76 µM (inactive) | 14 µM (inactive) | 16.2 µM (inactive)
CCc1cccc(C)c1NC(=O)C(=O)CC(=O)c1ccc(Cl)s1 | > 100 µM (inactive) | > 100 µM (inactive) | > 100 µM (inactive) | > 100 µM (inactive) | – | > 100 µM (inactive) | – | – | > 100 µM (inactive)

Reference: ChEMBL document CHEMBL1201862, “PubChem BioAssay data set” (2004)
